Our source for the EC50 values is US10981902B2 (Merck Sharp & Dohme Corp., priority 2017, dated 2021).

The test concerns the target T1, human M4 muscarinic acetylcholine receptor (Homo sapiens, UniProt P08173).
T1 construct: expressed in transfected cells; host or cells: CHO-K1
T1 sequence (P08173 1-479): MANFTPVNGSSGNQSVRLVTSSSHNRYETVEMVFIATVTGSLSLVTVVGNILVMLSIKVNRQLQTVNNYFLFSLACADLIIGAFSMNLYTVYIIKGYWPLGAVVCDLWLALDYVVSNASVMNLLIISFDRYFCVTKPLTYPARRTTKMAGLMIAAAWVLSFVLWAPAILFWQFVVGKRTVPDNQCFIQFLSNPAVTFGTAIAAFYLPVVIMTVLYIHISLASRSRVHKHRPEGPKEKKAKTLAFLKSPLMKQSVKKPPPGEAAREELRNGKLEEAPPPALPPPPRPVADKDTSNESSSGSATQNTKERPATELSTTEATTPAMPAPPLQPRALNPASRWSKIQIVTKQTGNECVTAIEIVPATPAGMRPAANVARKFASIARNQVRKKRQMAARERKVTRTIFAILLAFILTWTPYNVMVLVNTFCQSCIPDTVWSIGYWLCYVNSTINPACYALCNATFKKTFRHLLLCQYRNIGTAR
In words: human FLIPR-based M4 PAM assay (calcium mobilization, CHO-K1 cells with human M4 receptor and Gαqi5). Type of test: cell-based. The conditions noted are these: inflection point (IP) of dose response curve, acetylcholine added at 20% of maximum response, read-out: M4 FLIPPR Hu IP. The procedure: In a typical experiment the M4 muscarinic acetylcholine receptor modulating activity of the compounds of the present invention was determined in accordance with the following experimental method. CHO-K1 cells stably transfected with human M4 receptor and chimeric G-protein Gαqi5 (Coward P, et al., Analytical Biochemistry, 270:242-248 (1999)) are thawed from liquid N2 storage, resuspended in growth medium, plated in black, clear bottom 384 well plates, and incubated 16-20 hours at 37° C., 5% CO2. On the day of assay, growth medium is removed, the cells are washed 2 times with wash buffer, and cells are incubated in dye loading buffer at 37° C., 5% CO2 for ˜1 hour. Following dye loading the cell plates are placed in a FLIPR Tetra instrument and while monitoring dye fluorescence (excitation […]), 10 uL of test substance at increasing concentrations is added, and fluorescence values are recorded for 4 min. Next, 10 uL of acetylcholine is added (final concentration calculated so as to achieve 20% of the maximum acetycholine response), and the fluorescence reading is continued for 3.5 min. In some cases, a third addition of acetylcholine (final concentration calculated to achieve 70% of the maximal acetylcholine response) is performed. The resulting dose response curves are fit to a 4 parameter logistic equation and the final result is determined as the inflection point (IP) of the curve
CHO-K1 cells stably transfected with human M4 receptor and chimeric G-protein Gαqi5 are thawed from liquid N2 storage, resuspended in growth medium, plated in black, clear bottom 384 well plates, and incubated 16-20 hours at 37° C., 5% CO2.
On the day of assay, growth medium is removed, the cells are washed 2 times with wash buffer, and cells are incuabted in dye loading buffer at 37° C., 5% CO2 for ˜1 h. Following dye loading the cell plates are placed in a FLIPR Tetra instrument and while monitoring dye fluorescence ([…]), 10 uL of test substance at increasing concentrations is added, and fluorescence values are recorded for 4 min. Next, 10 uL of acetylcholine is added (final concentration calculated so as to achieve 20% of the maximum acetycholine response), and the fluorescence reading is continued for 3.5 min. In some cases, a third addition of acetylcholine (final concentration calculated to achieve 70% of the maximal acetylcholine response) is performed.

With `O=C1c2cc(-c3nc4c(cc3-c3cnc(CC5CCCC5)o3)CCC4)cnc2CN1CC1CC1` [Example 52, 3-(3-(2-(cyclopentylmethyl)oxazol-5-yl)-6,7-dihydro-5H-cyclopenta[b]pyridin-2-yl)-6-(cyclopropylmethyl)-6,7-dihydro-5H-pyrrolo[3,4-b] pyridin-5-one], the EC50 is 178 nM.

As for `CN1Cc2ncc(-c3nc4c(cc3-c3cnc(CC5CCCC5)o3)CCC4)cc2C1=O` [Example 53, 3-(3-(2-(cyclopentylmethyl)oxazol-5-yl)-6,7-dihydro-5H-cyclopenta[b]pyridin-2-yl)-6-methyl-6,7-dihydro-5H-pyrrolo[3,4-b] pyridin-5-one], the EC50 was determined as 153 nM.

On to `COc1cc2ccc(-c3nc(C)ccc3-c3cnc(Cc4ccc(F)cc4)o3)cc2nn1` [Example 54, 2-(4-fluorobenzyl)-5-(2-(3-methoxycinnolin-7-yl)-6-methylpyridin-3-yl)oxazole], for which the EC50 is 45 nM.

As for `N#Cc1ccc(-c2cnc(CC3CCCC3)o2)c(N2CCn3ccnc3C2)n1` [Example 55, 5-(2-(cyclopentylmethyl)oxazol-5-yl)-6-(5,6-dihydroimidazo[1,2-a]pyrazin-7(8H)-yl)picolinonitrile], the EC50 worked out at 8 nM.

Turning to `Cc1ccc(-c2cnc(CC3CCCC3)o2)c(N2CCn3ccnc3C2)n1` [Example 56, 2-(cyclopentylmethyl)-5-(2-(5,6-dihydroimidazo[1,2-a]pyrazin-7(8H)-yl)-6-methylpyridin-3-yl)oxazole], the EC50 was 11 nM.

With `Clc1ccc(-c2cnc(CC3CCCC3)o2)c(N2CCn3ccnc3C2)n1` [Example 57, 5-(6-chloro-2-(5,6-dihydroimidazo[1,2-a]pyrazin-7(8H)-yl)pyridin-3-yl)-2-(cyclopentylmethyl) oxazole], the EC50 amounted to 117 nM.

As to `N#Cc1ccc(-c2cnc(CC3CCCC3)o2)c(N2CCn3ccnc3C2)n1` [Example 58, 5-(2-(cyclopentylmethyl)oxazol-5-yl)-6-(5,6-dihydroimidazo[1,2-a]pyrazin-7(8H)-yl) picolinonitrile], the EC50 was found to be 17 nM.

For the molecule `Cc1ccc(-c2cnc(Cc3ccc(F)cc3)o2)c(N2CCn3ccnc3C2)n1` [Example 59, 5-(2-(5,6-dihydroimidazo[1,2-a]pyrazin-7(8H)-yl)-6-methylpyridin-3-yl)-2-(4-fluorobenzyl)oxazole], the EC50 amounted to 459 nM.

Take `Cc1cn2ccc(-c3nc(C#N)ccc3-c3cnc(CC4CC4)o3)cc2n1` [Example 60, 5-(2-(cyclopropylmethyl)oxazol-5-yl)-6-(2-methylimidazo[1,2-a]pyridin-7-yl)picolinonitrile]: the EC50 is 79 nM.

For the molecule `CC(C)Cc1ncc(-c2ccc(C#N)nc2-c2ccc3cccnc3c2)o1` [Example 61, 5-(2-isobutyloxazol-5-yl)-6-(quinolin-7-yl)picolinonitrile], the EC50 worked out at 61 nM.

As for `N#Cc1ccc(-c2cnc(CC3CC3)o2)c(-c2ccc3cccnc3c2)n1` [Example 62, 5-(2-(cyclopropylmethyl)oxazol-5-yl)-6-(quinolin-7-yl)picolinonitrile], the EC50 came to 104 nM.

As to `N#Cc1ccc(-c2cnc(CC3CC3)o2)c(-c2ccn3ccnc3c2)n1` [Example 63, 5-(2-(cyclopropylmethyl)oxazol-5-yl)-6-(imidazo[1,2-a]pyridin-7-yl)picolinonitrile], the EC50 was 94 nM.

In the case of `Cc1nc(CC2CCCC2)oc1-c1ccc(C#N)nc1-c1ccc2cccnc2c1` [Example 64, 5-(2-(cyclopentylmethyl)-4-methyloxazol-5-yl)-6-(quinolin-7-yl)picolinonitrile], the EC50 worked out at 49 nM.

As to `CC(C)(C)CCc1ncc(-c2ccc(C#N)nc2-c2ccc3cccnc3c2)o1` [Example 65, 5-(2-(3,3-dimethylbutyl)oxazol-5-yl)-6-(quinolin-7-yl)picolinonitrile], the EC50 came to 96 nM.

Regarding `CC(C)(C)CCc1ncc(-c2ccc(C#N)nc2-c2ccn3ccnc3c2)o1` [Example 66, 5-(2-(3,3-dimethylbutyl)oxazol-5-yl)-6-(imidazo[1,2-a]pyridin-7-yl) picolinonitrile], the EC50 is 42 nM.

Turning to `N#Cc1ccc(-c2cnc(CCC(F)(F)F)o2)c(-c2ccn3ccnc3c2)n1` [Example 67, 6-(imidazo[1,2-a]pyridin-7-yl)-5-(2-(3,3,3-trifluoropropyl)oxazol-5-yl)picolinonitrile], the EC50 was 136 nM.

Regarding `N#Cc1ccc(-c2cnc(CC(O)C3CC3)o2)c(-c2ccc3cccnc3c2)n1` (stereo not drawn) [Example 68, 5-(2-(2-cyclopropyl-2-hydroxyethyl)oxazol-5-yl)-6-(quinolin-7-yl)picolinonitrile], the EC50 was 231 nM.

`N#Cc1ccc(-c2cnc(CC(F)C3CC3)o2)c(-c2ccc3cccnc3c2)n1` (stereo not drawn) [Example 69, 5-(2-(2-cyclopropyl-2-fluoroethyl)oxazol-5-yl)-6-(quinolin-7-yl)picolinonitrile]: the EC50 stood at 41 nM.

As for `N#Cc1ccc(-c2cnc(CC3(F)CCCC3)o2)c(-c2ccc3cccnc3c2)n1` [Example 72, 5-(2-((1-fluorocyclopentyl)methyl)oxazol-5-yl)-6-(quinolin-7-yl)picolinonitrile], the EC50 came out at 51 nM.

For `N#Cc1ccc(-c2cnc(CC3(F)CCC3)o2)c(-c2ccc3cccnc3c2)n1` [Example 73, 5-(2-((1-fluorocyclobutyl)methyl)oxazol-5-yl)-6-(quinolin-7-yl)picolinonitrile], the EC50 turned out to be 65 nM.

As for `CCC(F)(CC)Cc1ncc(-c2ccc(C#N)nc2-c2ccc3cccnc3c2)o1` [Example 74, 5-(2-(2-ethyl-2-fluorobutyl)oxazol-5-yl)-6-(quinolin-7-yl)picolinonitrile], the EC50 came out at 138 nM.

Take `Cc1cn2ccc(-c3nc(C#N)ccc3-c3cnc(CC4(O)CCCC4)o3)cc2n1` [Example 75, 5-(2-((1-hydroxycyclopentyl)methyl)oxazol-5-yl)-6-(2-methylimidazo [1,2-a]pyridin-7-yl) picolinonitrile]: the EC50 came out at 230 nM.

In the case of `N#Cc1ccc(-c2cnc(CC3(F)CCCC3)o2)c(-c2ccn3ccnc3c2)n1` [Example 76, 5-(2-((1-fluorocyclopentyl)methyl)oxazol-5-yl)-6-(imidazo [1,2-a]pyridin-7-yl) picolinonitrile], the EC50 turned out to be 15 nM.

Consider `CN1Cc2ncc(-c3nc(C#N)ccc3-c3cnc(CC4(F)CCCC4)o3)cc2C1=O` [Example 77], for which the EC50 was found to be 45 nM.

In the case of `FC1(Cc2ncc(-c3cccnc3-c3ccn4ccnc4c3)o2)CCCC1` [Example 78, 2-((1-fluorocyclopentyl)methyl)-5-(2-(imidazo[1,2-a]pyridin-7-yl)pyridin-3-yl) oxazole], the EC50 was determined as 105 nM.

As for `Cc1cn2ccc(-c3nc(C#N)ccc3-c3cnc(CC4(F)CCCC4)o3)cc2n1` [Example 79, 5-(2-((l-fluorocyclopentyl)methyl)oxazol-5-yl)-6-(2-methylimidazo [1,2-a]pyridin-7-yl) picolinonitrile], the EC50 was 31 nM.

Take `CC(C)(F)Cc1ncc(-c2ccc(C#N)nc2-c2ccc3cccnc3c2)o1` [Example 80, 5-(2-(2-fluoro-2-methylpropyl)oxazol-5-yl)-6-(quinolin-7-yl) picolinonitrile]: the EC50 was 141 nM.

Take `CN1Cc2ccc(-c3nc(C#N)ccc3-c3cnc(CC4(O)CCCC4)o3)cc2C1=O` [Example 81, 5-(2-((1-hydroxycyclopentyl)methyl)oxazol-5-yl)-6-(2-methyl-3-oxoisoindolin-5-yl) picolinonitrile]: the EC50 turned out to be 184 nM.

For the molecule `CN1Cc2ccc(-c3nc(C#N)ccc3-c3cnc(CC4(F)CCCC4)o3)cc2C1=O` [Example 82, 5-(2-((1-fluorocyclopentyl)methyl)oxazol-5-yl)-6-(2-methyl-3-oxoisoindolin-5-yl)picolinonitrile], the EC50 was 42 nM.

As for `CC(Cc1ncc(-c2ccc(C#N)nc2-c2ccc3cccnc3c2)o1)C(C)(C)F` (stereo not drawn) [Example 83, 5-(2-(3-fluoro-2,3-dimethylbutyl)oxazol-5-yl)-6-(quinolin-7-yl) picolinonitrile], the EC50 is 68 nM.
